Assay results published in paper PMC5576918, “Small molecule inhibition of apicomplexan FtsH1 disrupts plastid biogenesis in human pathogens” (eLife, 2017).
Where two headings read alike, the source gives them in different places.

Legend:
[1] = test system: P. falciparum; experiment: microbe, parasite or virus in culture; set-up: species or system P. falciparum asexual blood stages in human erythrocytes; Blood-stage parasite growth inhibition over one lytic cycle, YOYO-1 parasitemia by flow cytometry; details: Plasmodium falciparum, Erythrocyte, 48 h, read-out: 48h
Description: (§1) For P. falciparum EC50 calculations, growth assays were performed in 96 well plates containing serial dilution of drugs in triplicate. Media was supplemented with 200 uM IPP as indicated. Growth was initiated with ring-stage parasites (synchronized with 5% sorbitol treatment) at 1% parasitemia and 1% hematocrit. […] Parasitized cells were stained with 50 nM YOYO-1 (Invitrogen) overnight at room temperature and the parasitemia was determined by flow cytometry (BD Accuri C6 Sampler). Data were analyzed by BD Accuri C6 Sampler software. […] A single natural product antibiotic, actinonin, matched our criteria (Figure 1a) ([Gordon et al., 1962]). […] Because isoprenoid precursor biosynthesis is the only essential function of the apicoplast in blood-stage P. falciparum, any disruption of the apicoplast, including complete loss of the organelle, can be rescued by addition of the isoprenoid precursor, isopentenyl pyrophosphate (IPP), in the growth media ([Yeh and DeRisi, 2011]). […] Compared to chloramphenicol, actinonin clearly had more rapid antimalarial activity.

[2] = test system: P. falciparum; experiment: microbe, parasite or virus in culture; set-up: species or system P. falciparum asexual blood stages in human erythrocytes; Blood-stage parasite growth inhibition over two lytic cycles, YOYO-1 parasitemia by flow cytometry; details: Plasmodium falciparum, Erythrocyte, 96 h, read-out: 96h
Description: as §1

[3] = biological target: T1, PfFtsH1 (Plasmodium falciparum, UniProt Q8I526); experiment: ATP-dependent FITC-casein proteolysis by purified recombinant PfFtsH1, fluorescence; type: biochemical
T1 construct: gene PF3D7_1239700; His6-SUMO-PfFtsH1_91-612-GST (AAA+ ATPase and peptidase domains, lacking transmembrane domain)
T1 sequence (Q8I526 entry or part of it): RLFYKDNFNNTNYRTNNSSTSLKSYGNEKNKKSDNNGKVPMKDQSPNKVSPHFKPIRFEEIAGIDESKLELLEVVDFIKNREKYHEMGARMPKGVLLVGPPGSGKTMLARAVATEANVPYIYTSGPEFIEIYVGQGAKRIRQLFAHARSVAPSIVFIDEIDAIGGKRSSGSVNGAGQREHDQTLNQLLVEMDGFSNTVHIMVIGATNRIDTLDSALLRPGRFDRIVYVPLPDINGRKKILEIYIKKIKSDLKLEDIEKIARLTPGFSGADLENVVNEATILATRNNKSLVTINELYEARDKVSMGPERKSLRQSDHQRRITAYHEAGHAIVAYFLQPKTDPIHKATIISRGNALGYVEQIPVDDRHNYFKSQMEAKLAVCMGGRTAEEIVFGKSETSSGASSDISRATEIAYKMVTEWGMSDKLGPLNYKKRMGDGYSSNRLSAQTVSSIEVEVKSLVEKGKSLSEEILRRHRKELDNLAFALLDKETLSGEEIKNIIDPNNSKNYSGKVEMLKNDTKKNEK

| Structure (SMILES) | EC50 [1] [µM] | EC50 [2] [µM] | IC50 [3] [µM] |
| --- | --- | --- | --- |
| Nc1ccn([C@@H]2O[C@H](CO)[C@@H](O)[C@H]2F)c(=O)n1 [2'deoxy-2-F-cytidine] | > 200 | > 200 |  |
| CCCCC[C@H](CC(N)=O)C(=O)N[C@H](C(=O)N1CCC[C@H]1CO)C(C)C [actinamide] |  |  | 7.3 |
| CCCCC[C@H](CC(=O)NO)C(=O)N[C@H](C(=O)N1CCC[C@H]1CO)C(C)C [actinonin] | 3.2 | 2.7 |  |
| O=C(O)c1cn(C2CC2)c2cc(N3CCNCC3)c(F)cc2c1=O [ciprofloxacin] | 24 | 6 |  |
| CCn1cc(C(=O)O)c(=O)c2cc(F)c(N3CCNCC3)nc21 [enoxacin] | > 50 | 5.7 |  |
| C[C@H]1COc2c(N3CCN(C)CC3)c(F)cc3c(=O)c(C(=O)O)cn1c23 [levofloxacin] | 70 | 16 |  |
| CC(C)C(=O)OC[C@H]1O[C@@H](n2ccc(N)nc2=O)[C@](C)(F)[C@@H]1OC(=O)C(C)C [mericitabine] | > 200 | > 200 |  |
| CCn1cc(C(=O)O)c(=O)c2cc(F)c(N3CCNCC3)cc21 [norfloxacin] | 40 | 10 |  |
| CO[C@@H]1[C@@H](OC(N)=O)[C@@H](O)[C@H](Oc2ccc3c(O)c(NC(=O)c4ccc(O)c(CC=C(C)C)c4)c(=O)oc3c2C)OC1(C)C [novobiocin] | 40 | 36 |  |
| CO[C@H]1/C=C/O[C@@]2(C)Oc3c(C)c(O)c4c(O)c(c(/C=N/N5CCN(C)CC5)c(O)c4c3C2=O)NC(=O)/C(C)=C\C=C\[C@H](C)[C@H](O)[C@@H](C)[C@@H](O)[C@@H](C)[C@H](OC(C)=O)[C@@H]1C [rifampin] | 1 | 2 |  |
